Test system: Hyperlipemia Model of SD Rat
Assay: Screening in the hyperlipemia model of SD rat (fat emulsion by gavage; serum lipids)
Type: in vivo
Details: hyperlipemia SD rats, 40 mg/kg, dosed 21 days, X ± SD
Experimental: Materials and Methods for Screening with the Compounds Prepared in Experiment 1 to 21 in the Hyperlipemia Model of SD Rat
SD rats, male, 150-180 g, supplied by Shanghai Slaccas Laboratory Animal Company Limited.
Preparation of fat emulsion: 500 g lard oil was weighed and placed into a vessel, heated for melting, and upon heating up to the temperature of 100° C., 200 g cholesterol was added and fully dissolved, then 20 g propylthiouracil was added. After full stirring and dissolving, 500 ml Tween 80 was added to give an oil phase. Meanwhile, 600 ml distilled water and 400 ml 1,2-propylene glycol were heated to 60° C. in water bath, and then 40 g sodium deoxycholate was added with stirring, until full dissolution, to give an aqueous phase. The aqueous phase was added into the oil phase and fully and uniformly mixed, to prepare the fat emulsion.
Formulation of the solution for the compounds: an appropriate amount of compounds was triturated with appropriate amount of Tween 80 for homogeneous dispersion, and then sufficient CMC-Na solution was added and fully triturated, suspended to give the solution for the compounds.
The animals were fed for acclimation for 3 days, with 8 animals as blank control (Control) according to weight, and the rest was subject to intragastric administration of fat emulsion at 1 ml/100 g weight at A.M. 9:00-11:00 daily for continuous 2 weeks; the animals were fasted for 12 hours, and had 1 ml blood sampled at orbital cavity, which was measured with the Hitachi Automatic Biochemical Analyzer 7080 for serum cholesterol (CHO), triglyceride (TO), low-density lipoprotein (LDL-C) and high-density lipoprotein (HDL-C), with the animals having CHO of 4-7 mmol/L for experiment.
The animals dosed with fat emulsion for 2 weeks were divided into model group (Model), simvastatin group (Sim, 10 mg/kg) and compound group (40 mg/kg) according to weight, and continued to receive intragastric administration with fat emulsion; at the same time, the dosed group was administered with respective amount of drug, and the model group was administered with equal volume of solvent. Fat emulsion was dosed by gavage at A.M., and drug was dosed at P.M. The animals were weighed at Monday, and were observed. The animals were dosed for continuous 21 days, and fasted for 12 hours, with 1 ml blood sampling at orbital cavity. The liver was exposed and observed for pathologic condition; after slicing and weighing, it was fixed into the 4% formaldehyde solution for pathologic examination.
The Hitachi Automatic Biochemical Analyzer 7080 was used to measure serum cholesterol (CHO), triglyceride (TG), low-density lipoprotein (LDL-C) and high-density lipoprotein (HDL-C).
Laboratory data were expressed as X±SD (Standard Deviation), and comparison between groups was carried out by t-testing.

Row | SMILES | CHO1 Concentration (serum cholesterol) | HDL-C Concentration (serum high-density lipoprotein) | LDL-C Concentration (serum low-density lipoprotein) | TG Concentration (serum triglyceride)
1 | CC(C)(Oc1ccc(CCNC(=O)c2ccc(Cl)cc2)cc1)C(=O)NCC(=O)c1ccc(OC(=O)C(C)(C)Oc2ccc(CCNC(=O)c3ccc(Cl)cc3)cc2)cc1 [Compound 02] | 17.29 ± 3.23 mmol/L | 1.68 ± 0.38 mmol/L | 16.01 ± 2.99 mmol/L | 0.68 ± 0.18 mmol/L
2 | CC(C)(Oc1ccc(CCNC(=O)c2ccc(Cl)cc2)cc1)C(=O)NCC(=O)c1ccc(O)cc1 [Compound 01] | 14.84 ± 1.06 mmol/L | 1.56 ± 0.25 mmol/L | 13.90 ± 1.23 mmol/L | 0.66 ± 0.13 mmol/L
3 | CCC(C)(Oc1ccc(C2(c3ccc(OC(C)(CC)C(=O)NCC(=O)c4ccc(O)cc4)cc3)CCCCC2)cc1)C(=O)O (stereo not shown) [Compound 11] | 12.18 ± 3.12 mmol/L | 1.79 ± 0.34 mmol/L | 11.37 ± 3.66 mmol/L | 1.13 ± 0.14 mmol/L
4 | CCC(C)(Oc1ccc(C2(c3ccc(OC(C)(CC)C(=O)NCC(=O)c4ccc(O)cc4)cc3)CCCCC2)cc1)C(=O)NCC(=O)c1ccc(O)cc1 (stereo not shown) [Compound 12] | 20.17 ± 1.27 mmol/L | 1.895 ± 0.39 mmol/L | 19.31 ± 1.52 mmol/L | 0.75 ± 0.25 mmol/L
5 | CC(C)(Oc1ccc(C2CC2(Cl)Cl)cc1)C(=O)NCC(=O)c1ccc(OC(=O)C(C)(C)Oc2ccc(C3CC3(Cl)Cl)cc2)cc1 (stereo not shown) [Compound 08] | 12.92 ± 2.10 mmol/L | 2.12 ± 0.27 mmol/L | 11.41 ± 1.90 mmol/L | 0.83 ± 0.13 mmol/L
6 | CC(C)(Oc1ccc(C2CC2(Cl)Cl)cc1)C(=O)NCC(=O)c1ccc(O)cc1 (stereo not shown) [Compound 07] | 14.99 ± 1.45 mmol/L | 1.74 ± 0.46 mmol/L | 13.90 ± 1.21 mmol/L | 1.39 ± 0.16 mmol/L
7 | CC(Oc1ccc(Cl)cc1)(C(=O)NCC(=O)c1ccc(O)cc1)C1CC1 (stereo not shown) [Compound 20] | 19.88 ± 0.84 mmol/L | 2.63 ± 0.57 mmol/L | 18.48 ± 0.43 mmol/L | 1.72 ± 0.26 mmol/L
8 | Cc1ccc(C)c(OCCCC(C)(C)C(=O)NCC(=O)c2ccc(O)cc2)c1 [Compound 05] | 15.30 ± 2.45 mmol/L | 1.54 ± 0.24 mmol/L | 14.38 ± 2.12 mmol/L | 1.31 ± 0.15 mmol/L
9 | Cc1ccc(C)c(OCCCC(C)(C)C(=O)NCC(=O)c2cc(O)cc(O)c2)c1 [Compound 19] | 11.12 ± 1.01 mmol/L | 1.36 ± 0.66 mmol/L | 10.76 ± 1.25 mmol/L | 0.94 ± 0.06 mmol/L
10 | Cc1cc(C(=O)CCNC(=O)C(C)(CCCOc2cc(Cl)ccc2C)C(C)C)ccc1O (stereo not shown) [Compound 15] | 15.00 ± 2.75 mmol/L | 1.89 ± 0.26 mmol/L | 14.04 ± 3.12 mmol/L | 1.34 ± 0.48 mmol/L
11 | CC(C)(Oc1ccc(C(=O)c2ccc(Cl)cc2)cc1)C(=O)NCC(=O)c1ccc(OC(=O)C(C)(C)Oc2ccc(C(=O)c3ccc(Cl)cc3)cc2)cc1 [Compound 04] | 10.02 ± 1.80 mmol/L | 1.82 ± 0.19 mmol/L | 9.84 ± 1.37 mmol/L | 1.15 ± 0.12 mmol/L
12 | CC(C)(Oc1ccc(C(=O)c2ccc(Cl)cc2)cc1)C(=O)NCC(=O)c1ccc(O)cc1 [Compound 03] | 12.63 ± 2.77 mmol/L | 1.54 ± 0.20 mmol/L | 11.11 ± 2.45 mmol/L | 0.99 ± 0.18 mmol/L
13 | Cc1ccc(C)c(OCCCC(C)(C)C(=O)NCC(=N)c2ccc(O)c(Cl)c2)c1 [Compound 17] | 10.54 ± 3.23 mmol/L | 1.82 ± 0.22 mmol/L | 8.13 ± 3.46 mmol/L | 0.88 ± 0.28 mmol/L
14 | CC(C)(Oc1ccc(Cl)cc1)C(=O)NCC(=O)c1ccc(O)cc1 [Compound 09] | 13.64 ± 2.14 mmol/L | 2.18 ± 0.22 mmol/L | 11.64 ± 2.00 mmol/L | 0.95 ± 0.14 mmol/L
15 | Cc1ccc(C)c(OCCCC(C)(C)C(=O)NC2CCC(C(=S)c3ccc(O)cc3)CC2)c1 (stereo not shown) [Compound 18] | 15.04 ± 2.73 mmol/L | 1.56 ± 0.51 mmol/L | 13.47 ± 3.68 mmol/L | 1.25 ± 0.33 mmol/L
16 | COc1ccc(OCCCC(C)(C)C(=O)NCC(=O)c2ccc(O)c(C)c2)cc1C [Compound 14] | 20.66 ± 3.23 mmol/L | 2.25 ± 0.22 mmol/L | 20.78 ± 3.46 mmol/L | 0.99 ± 0.28 mmol/L
17 | Cc1ccc(C)c(OCCCC(C)(C)C(=O)NCC(=O)c2ccc(OC(=O)C(C)(C)CCCOc3cc(C)ccc3C)cc2)c1 [Compound 06] | 16.37 ± 2.26 mmol/L | 1.49 ± 0.29 mmol/L | 15.78 ± 2.00 mmol/L | 1.53 ± 0.16 mmol/L
18 | CCC(CC)(CCCOc1cc(C)cc(C)c1)C(=O)NCC(=O)c1cccc(O)c1 [Compound 13] | 20.17 ± 1.27 mmol/L | 1.895 ± 0.39 mmol/L | 19.31 ± 1.52 mmol/L | 0.75 ± 0.25 mmol/L
19 | CC(C)(Oc1ccc(Cl)cc1)C(=O)NCC(=O)c1ccc(OC(=O)C(C)(C)Oc2ccc(Cl)cc2)cc1 [Compound 10] | 9.73 ± 1.79 mmol/L | 2.66 ± 0.24 mmol/L | 8.27 ± 1.46 mmol/L | 0.94 ± 0.15 mmol/L

Test system: Cholelithiasis Model of Golden Hamster
Assay: Screening in the cholelithiasis model of golden hamster (biochemical measurement of bile)
Type: in vivo, golden hamsters
Details: 20 mg/kg, dosed 45 days, X ± SD
Experimental: Screening with the Compounds Prepared in Experiment 1 to 21 in the Cholelithiasis Model of Golden Hamster
68 male golden hamsters, 50-60 g, supplied by Shanghai Slaccas Laboratory Animal Company Limited.
The animals were fed for acclimation for 3 days, with 8 animals as blank control (Control) according to weight. The control was dosed with normal rat feedstuff, and the rest was dosed with feedstuff leading to cholelithiasis (sucrose 32.1%, cheese 64.2%, cholesterol 0.2%, salt 3%, vitamin B1 […], concentrated fish liver oil 0.4%). The animals were fed for acclimation for another 7 days, and divided into model group (Model), simvastatin group (Sim, 10 mg/kg), Ursodesoxycholic acid group (UDCA, 40 mg/kg), and compound group, n=6/group.
[…] 2:00-3:00 daily. The animals were weighed at Monday, and observed for hair color, stool, and variation of activation level.
The animals were dosed for continuous 45 days and then fasted for 12 hours; were anesthetized with 30 mg/kg sodium secobarbital via intraperitoneal injection; had 1 ml blood sampled via abdominal aorta; had gallbladder exposed, with an orifice on the gallbladder being clamped by the ophthalmological pliers and bile in the gallbladder being sucked with 1 ml syringe.
The Hitachi Automatic Biochemical Analyzer 7080 was used to measure cholesterol (CHO), total total bilirubin (TBIL), total bile acid (TBA) and total protein (TP) in bile.
Laboratory data was expressed as X±SD, and comparison of measurement data between groups was carried out by t-testing, with non-parametric testing for enumeration data.

Row | SMILES | Cholesterol (CHO) in bile | Total bile acid (TBA) in bile | Total protein (TP) in bile | Total total bilirubin (TBIL) in bile
20 | CC(Oc1ccc(Cl)cc1)(C(=O)NCC(=O)c1ccc(O)cc1)C1CC1 (stereo not shown) [Compound 20] | 0.92 ± 0.66 mmol/L | 16.80 ± 9.62 mmol/L | 32.94 ± 19.18 g/L | 75.92 ± .072 µmol/L

Same assay, conditions: 40 mg/kg, dosed 45 days, X ± SD

Row | SMILES | Cholesterol (CHO) in bile | Total bile acid (TBA) in bile | Total protein (TP) in bile | Total total bilirubin (TBIL) in bile
21 | C[C@H](CCC(=O)O)[C@H]1CC[C@H]2[C@@H]3[C@@H](O)C[C@@H]4C[C@H](O)CC[C@]4(C)[C@H]3CC[C@]12C [Ursodesoxycholic acid, reference compound] | 0.98 ± 0.47 mmol/L | 12.23 ± 3.04 mmol/L | 28.63 ± 10.37 g/L | 89.4 ± 45.3 µmol/L

Same assay, conditions: 80 mg/kg, dosed 45 days, X ± SD

Row | SMILES | Cholesterol (CHO) in bile | Total bile acid (TBA) in bile | Total protein (TP) in bile | Total total bilirubin (TBIL) in bile
22 | CCC(C)(Oc1ccc(C2(c3ccc(OC(C)(CC)C(=O)NCC(=O)c4ccc(O)cc4)cc3)CCCCC2)cc1)C(=O)O (stereo not shown) [Compound 11] | 0.82 ± 0.58 mmol/L | 17.46 ± 7.77 mmol/L | 28.66 ± 8.48 g/L | 48.9 ± 22.10 µmol/L
